Results published in US4877778A, “Method of enhancing lipophile transport using cyclodextrin derivatives” (priority 1987, dated 1989).

What was measured:
[1] = test system: patient with severe, chronic hypervitaminosis A; details: human, in vivo
Procedure: (§1) The infusion was therefore discontinued and 250 mL of fresh frozen plasma was administered over 3 hours.

[2] = in vivo
Procedure: as §1

- LDM [2]: 536 U/L
- Serum pH and concentrations of glucose, protein, albumin, calcium, phosphate, and hepatic transaminases [2]: remained normal throughout the infusion
- chloride [2]: 107 M EQ/L
- sodium [2]: 138 M EQ/L
Substance: 2-hydroxypropyl-β-cyclodextrin
- symptoms during infusion [1]: generalized irritability and pain in the legs and shins
